Laboratory results from patent publication US20240384268A1, “Oligonucleotides” (Hudson Institute of Medical Research, priority 2021, published 2024).
In the oligonucleotide strings, read from the 5' end, every base follows the letter of its sugar. An asterisk marks phosphorothioate; unmarked linkages are phosphodiester. Other units and linkages are bracketed, terminal groups are in braces. A string of capitals states the bases alone. d = 2'-deoxy (DNA); m = 2'-O-methyl

Molecular target: T1, human TLR9 (Homo sapiens, UniProt Q9NR96)
T1 construct: HA; host or cells: 293XL-hTLR9-HA (HEK293)
T1 sequence (Q9NR96 26-1032): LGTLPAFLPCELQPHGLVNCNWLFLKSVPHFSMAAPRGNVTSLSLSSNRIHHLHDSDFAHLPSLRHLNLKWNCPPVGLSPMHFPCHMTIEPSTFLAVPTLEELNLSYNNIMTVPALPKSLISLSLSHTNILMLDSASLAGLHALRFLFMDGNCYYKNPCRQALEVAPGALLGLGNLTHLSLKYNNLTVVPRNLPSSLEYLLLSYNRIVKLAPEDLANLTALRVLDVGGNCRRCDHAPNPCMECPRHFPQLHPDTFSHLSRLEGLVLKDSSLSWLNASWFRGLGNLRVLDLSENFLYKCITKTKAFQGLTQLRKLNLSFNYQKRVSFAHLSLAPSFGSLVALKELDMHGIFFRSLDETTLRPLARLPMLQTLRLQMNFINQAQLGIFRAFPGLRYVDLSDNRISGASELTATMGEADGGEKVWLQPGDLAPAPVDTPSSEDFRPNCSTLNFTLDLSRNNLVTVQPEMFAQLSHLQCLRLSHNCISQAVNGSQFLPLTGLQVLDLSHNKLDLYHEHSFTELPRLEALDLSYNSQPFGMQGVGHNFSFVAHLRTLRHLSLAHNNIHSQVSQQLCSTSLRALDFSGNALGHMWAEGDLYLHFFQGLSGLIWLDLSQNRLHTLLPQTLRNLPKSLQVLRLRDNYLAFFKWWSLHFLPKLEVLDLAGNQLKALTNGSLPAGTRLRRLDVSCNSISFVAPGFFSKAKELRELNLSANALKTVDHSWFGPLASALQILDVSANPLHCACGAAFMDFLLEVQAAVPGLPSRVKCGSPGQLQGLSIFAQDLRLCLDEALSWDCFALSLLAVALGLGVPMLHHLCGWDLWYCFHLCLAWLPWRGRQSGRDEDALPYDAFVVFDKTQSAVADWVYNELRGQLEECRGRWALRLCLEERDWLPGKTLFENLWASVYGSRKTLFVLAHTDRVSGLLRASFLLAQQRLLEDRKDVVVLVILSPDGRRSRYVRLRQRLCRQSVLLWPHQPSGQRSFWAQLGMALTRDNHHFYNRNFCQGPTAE
Assay: HEK-TLR9 NF-κB-luciferase reporter, ODN2006 stimulation
Type: cell-based
Conditions: for TLR9 100 nM: MOE-modified ASO at 100 nM; for TLR9 100 nM / TLR9 500 nM: averaged NF-κB-Luciferase relative to ODN2006 condition; for TLR9 500 nM: MOE-modified ASO at 500 nM; for TLR9-500 nM: averaged NF-κB-Luciferase relative to ODN2006: HEK-TLR9, 500 nM ASO 45 min, then 200 nM ODN2006 overnight, percentage of ODN2006 only

Substance	TLR9 100 nM	TLR9 500 nM	TLR9-500 nM: averaged NF-κB-Luciferase relative to ODN2006 [%]
AGTCGTAGTTGCTTCCTAAC (antisense; 2'-MOE modified, pattern not given here) [MB21D1-1181 MOE]	0.527	0.341	–
ATGCCATCCACTTGATAGGC (antisense; 2'-MOE modified, pattern not given here) [EGFR-2874 MOE]	0.712	0.589	–
CGGAGGTCTTGGCTTCGTGG (antisense; 2'-MOE modified, pattern not given here) [MB21D1-525 MOE]	0.938	0.556	–
CGGCATCCACCACGTCGTCC (antisense; 2'-MOE modified, pattern not given here) [EGFR-3267 MOE]	0.449	0.373	–
GCCCATCCATGAGGTCCTGG (antisense; 2'-MOE modified, pattern not given here) [CTNN2B-2545 MOE]	0.324	0.175	–
GCTGACAAAGATTCACTGGT (antisense; 2'-MOE modified, pattern not given here) [HPRT-1353 MOE]	0.653	0.654	–
GGGTATCGAAAGAGTCTGGA (antisense; 2'-MOE modified, pattern not given here) [EGFR-3908 MOE]	0.349	0.203	–
GGTTTTGGCTGGGATCAAGT (antisense; 2'-MOE modified, pattern not given here) [CAMSAP1-4697 MOE]	0.381	0.200	–
GTCCAAGATCAGCAGTCTCA (antisense; 2'-MOE modified, pattern not given here) [CTNN2B-2341 MOE]	0.430	0.535	–
TCCGGCCTCGGAAGCTCTCT (antisense; 2'-MOE modified, pattern not given here) [MB21D1-168 MOE]	0.242	0.000	–
TGGCAGGCTCAGTGATGTCT (antisense; 2'-MOE modified, pattern not given here) [CTNN2B-1642 MOE]	0.722	0.479	–
TGGGCTGGAATCCGAGTTAT (antisense; 2'-MOE modified, pattern not given here) [EGFR-4705 MOE]	0.443	0.241	–
TGGGTTACGGCTCAGTATGG (antisense; 2'-MOE modified, pattern not given here) [CAMSAP1-4295 MOE]	0.478	0.228	–
TTTGCACACTTCGTACCCAA (antisense; 2'-MOE modified, pattern not given here) [CAMSAP1-4916 MOE]	0.735	0.514	–
mA*mA*mA*mA*mG*A*T*T*A*T*C*T*T*C*T*mU*mU*mU*mA*mA (AAAAGATTATCTTCTUUUAA; sugars from the 5' end m5 d10 m5, all phosphorothioate, methylation of C not given here) [[CDKN2B-AS1]2133]	–	–	80.95
mA*mA*mA*mA*mU*A*A*G*G*G*G*A*A*T*A*mG*mG*mG*mG*mA (mA*mA*mA*mA*mU*dA*dA*dG*dG*dG*dG*dA*dA*dT*dA*mG*mG*mG*mG*mA; antisense) [[CDKN2B-AS1]79]	–	–	67.44
mA*mA*mA*mG*mA*T*T*A*T*C*T*T*C*T*T*mU*mU*mA*mA*mU (mA*mA*mA*mG*mA*dT*dT*dA*dT*dC*dT*dT*dC*dT*dT*mU*mU*mA*mA*mU) [[CDKN2B-AS1]2132]	–	–	63.14

Substance	TLR9 100 nM	TLR9 500 nM	TLR9-500 nM: averaged NF-κB-Luciferase relative to ODN2006 [%]
mA*mA*mA*mU*mG*T*C*C*T*G*G*C*C*C*T*mC*mA*mC*mU*mG (mA*mA*mA*mU*mG*dT*dC*dC*dT*dG*dG*dC*dC*dC*dT*mC*mA*mC*mU*mG) [[LINC-PINT]148.1]	–	–	46.72
mA*mA*mG*mA*mU*T*A*T*C*T*T*C*T*T*T*mU*mA*mA*mU*mU (mA*mA*mG*mA*mU*dT*dA*dT*dC*dT*dT*dC*dT*dT*dT*mU*mA*mA*mU*mU) [[CDKN2B-AS1]2131]	–	–	59.77
mA*mA*mG*mG*mU*G*G*C*C*A*C*A*G*G*C*mA*mA*mC*mG*mU (mA*mA*mG*mG*mU*dG*dG*dC*dC*dA*dC*dA*dG*dG*dC*mA*mA*mC*mG*mU; antisense) [[CDKN2B-AS1]2198]	–	–	84.28
mA*mA*mU*mA*mU*C*T*G*C*T*G*C*C*C*A*mC*mC*mU*mU*mC (mA*mA*mU*mA*mU*dC*dT*dG*dC*dT*dG*dC*dC*dC*dA*mC*mC*mU*mU*mC; antisense) [[CDKN2B-AS1]832]	–	–	70.72
mA*mA*mU*mU*mU*A*A*A*G*C*A*T*G*A*A*mU*mA*mU*mU*mA (mA*mA*mU*mU*mU*dA*dA*dA*dG*dC*dA*dT*dG*dA*dA*mU*mA*mU*mU*mA) [[CDKN2B-AS1]645]	–	–	53.26
mA*mC*mC*mC*mU*T*C*T*C*T*C*T*G*G*T*mC*mC*mC*mA*mU (mA*mC*mC*mC*mU*dT*dC*dT*dC*dT*dC*dT*dG*dG*dT*mC*mC*mC*mA*mU; antisense) [[LINC-PINT]115]	–	–	32.00
mA*mG*mA*mA*mA*G*A*A*G*C*A*A*A*G*A*mU*mU*mC*mA*mA (AGAAAGAAGCAAAGAUUCAA; sugars from the 5' end m5 d10 m5, all phosphorothioate, methylation of C not given here) [[CDKN2B-AS1]1519]	–	–	68.12
mA*mG*mA*mU*mU*A*T*C*T*T*C*T*T*T*T*mA*mA*mU*mU*mU (AGAUUATCTTCTTTTAAUUU; sugars from the 5' end m5 d10 m5, all phosphorothioate, methylation of C not given here) [[CDKN2B-AS1]2130]	–	–	78.72
mA*mG*mC*mC*mG*A*A*C*A*G*A*A*G*G*A*mG*mC*mG*mU*mC (AGCCGAACAGAAGGAGCGUC; sugars from the 5' end m5 d10 m5, all phosphorothioate, methylation of C not given here) [[LINC-PINT]587 KL]	–	–	57.46
mA*mG*mG*mA*mU*T*A*A*A*A*C*A*G*A*T*mU*mA*mA*mU*mA (mA*mG*mG*mA*mU*dT*dA*dA*dA*dA*dC*dA*dG*dA*dT*mU*mA*mA*mU*mA) [[CDKN2B-AS1] 1775]	–	–	63.48
mA*mG*mG*mC*mC*T*C*C*A*G*T*G*T*C*T*mU*mC*mU*mC*mC (mA*mG*mG*mC*mC*dT*dC*dC*dA*dG*dT*dG*dT*dC*dT*mU*mC*mU*mC*mC; antisense) [[CDKN2B-AS1]2218]	–	–	81.24
mA*mU*mA*mU*mC*T*G*C*T*G*C*C*C*A*C*mC*mU*mU*mC*mU (AUAUCTGCTGCCCACCUUCU; antisense; sugars from the 5' end m5 d10 m5, all phosphorothioate, methylation of C not given here) [[CDKN2B-AS1]831]	–	–	73.46
mA*mU*mG*mA*mC*A*T*T*T*C*G*T*G*G*C*mU*mC*mC*mU*mA (mA*mU*mG*mA*mC*dA*dT*dT*dT*dC*dG*dT*dG*dG*dC*mU*mC*mC*mU*mA) [[LINC-PINT]524.1]	–	–	107.12
mC*mA*mA*mG*mC*C*C*C*A*G*C*G*T*T*C*mC*mU*mC*mC*mG (mC*mA*mA*mG*mC*dC*dC*dC*dA*dG*dC*dG*dT*dT*dC*mC*mU*mC*mC*mG; antisense) [[LINC-PINT]83.1]	–	–	93.79
mC*mA*mC*mC*mC*T*T*C*T*C*T*C*T*G*G*mU*mC*mC*mC*mA (CACCCTTCTCTCTGGUCCCA; antisense; sugars from the 5' end m5 d10 m5, all phosphorothioate, methylation of C not given here) [[LINC-PINT]116]	–	–	102.85
mC*mA*mC*mU*mG*T*A*T*T*T*T*A*T*T*A*mC*mA*mG*mA*mA (mC*mA*mC*mU*mG*dT*dA*dT*dT*dT*dT*dA*dT*dT*dA*mC*mA*mG*mA*mA; antisense) [[LINC-PINT]2990]	–	–	117.42
mC*mA*mG*mG*mC*C*T*C*C*A*G*T*G*T*C*mU*mU*mC*mU*mC (mC*mA*mG*mG*mC*dC*dT*dC*dC*dA*dG*dT*dG*dT*dC*mU*mU*mC*mU*mC; antisense) [[CDKN2B-AS1]2219]	–	–	66.99
